This is an account of results in ChEMBL document CHEMBL4819064, “Discovery of new pyrimidopyrrolizine/indolizine-based derivatives as P-glycoprotein inhibitors: Design, synthesis, cytotoxicity, and MDR reversal activities” (Eur J Med Chem, 2021).

A word on the IC50: it is the concentration that inhibits the measured activity by half.

In series [1] the test system is MCF7. The series can be described thus: Cytotoxicity against human MCF7 cells assessed as reduction in cell viability incubated for 72 hrs by MTT assay. The settings on record: MCF7, 72 h. In kind it is functional, cell-based. For orientation: Tetrazolium assays rely on reduction of a dye to a coloured formazan, in cell work by metabolically active cells.
In series [2] the test system is MCF7. Nature of the series: Induction of apoptosis in human MCF7 cells assessed as viable cells at 0.5 uM after 72 hrs by Annexin V-FITC/propidium iodide staining-based flow cytometric analysis (reference value: 86.4 %). In kind it is functional. The conditions noted are these: read-out: Activity. Background: A flow cytometer gives signals particle by particle.
In series [3] the test system is MCF7. Nature of the series: Cell cycle arrest in human MCF7 cells assessed as accumulation at S phase at 0.5 uM incubated for […] staining based flow cytometric analysis (reference value: […] +/- 2.6 %). The class given is functional.
For series [4], the system named is MCF7. Nature of the series: Cell cycle arrest in human MCF7 cells assessed as accumulation at S phase at 0.125 uM incubated for 72 hrs by PI staining based flow cytometric analysis (reference value: […] +/- 2.6 %). In kind it is functional.
Series [5] deals with ATP-dependent translocase ABCB1 (Homo sapiens, UniProt P08183). Nature of the series: Inhibition of P-gp activity in human MCF7/ADR cells after 72 hrs by RT-PCR analysis. In kind it is cell-based. The conditions noted are these: nci/adr-res, at 125 to 1000 nM, dose 125-1000 nM.
ATP-dependent translocase ABCB1, sequence (P08183 whole entry): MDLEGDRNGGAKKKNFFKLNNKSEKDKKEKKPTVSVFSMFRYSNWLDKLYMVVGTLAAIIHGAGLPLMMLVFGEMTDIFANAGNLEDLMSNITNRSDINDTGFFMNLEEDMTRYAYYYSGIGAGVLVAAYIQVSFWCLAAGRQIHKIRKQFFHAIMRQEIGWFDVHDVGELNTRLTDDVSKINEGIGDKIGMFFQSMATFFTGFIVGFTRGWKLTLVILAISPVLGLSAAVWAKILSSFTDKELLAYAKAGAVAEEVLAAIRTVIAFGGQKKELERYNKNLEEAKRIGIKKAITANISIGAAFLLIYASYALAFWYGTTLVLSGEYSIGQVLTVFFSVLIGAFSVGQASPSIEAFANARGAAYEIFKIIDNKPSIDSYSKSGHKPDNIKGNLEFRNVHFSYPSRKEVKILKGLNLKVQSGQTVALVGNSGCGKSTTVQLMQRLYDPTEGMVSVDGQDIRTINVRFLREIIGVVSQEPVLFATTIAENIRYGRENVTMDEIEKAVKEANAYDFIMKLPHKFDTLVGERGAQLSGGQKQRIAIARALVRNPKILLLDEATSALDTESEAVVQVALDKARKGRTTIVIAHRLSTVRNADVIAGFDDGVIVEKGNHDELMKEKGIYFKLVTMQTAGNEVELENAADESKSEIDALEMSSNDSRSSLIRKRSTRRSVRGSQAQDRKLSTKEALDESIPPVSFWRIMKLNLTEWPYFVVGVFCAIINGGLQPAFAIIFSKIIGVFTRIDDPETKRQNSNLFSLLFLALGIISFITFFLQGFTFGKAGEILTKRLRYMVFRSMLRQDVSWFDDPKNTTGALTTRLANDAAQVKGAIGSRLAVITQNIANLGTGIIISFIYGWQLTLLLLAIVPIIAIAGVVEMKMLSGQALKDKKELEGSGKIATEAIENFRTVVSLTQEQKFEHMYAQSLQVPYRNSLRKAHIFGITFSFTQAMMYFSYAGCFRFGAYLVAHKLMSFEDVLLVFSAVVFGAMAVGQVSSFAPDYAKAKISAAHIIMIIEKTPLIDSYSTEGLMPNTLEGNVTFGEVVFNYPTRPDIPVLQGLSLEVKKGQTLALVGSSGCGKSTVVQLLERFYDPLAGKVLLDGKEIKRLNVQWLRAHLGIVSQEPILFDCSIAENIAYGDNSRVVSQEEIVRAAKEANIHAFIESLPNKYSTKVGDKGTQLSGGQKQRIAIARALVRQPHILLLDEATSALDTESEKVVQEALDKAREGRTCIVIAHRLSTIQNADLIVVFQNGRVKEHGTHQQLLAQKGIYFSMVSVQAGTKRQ
The subject of series [6] is NCI/ADR-RES. The series can be described thus: Synergistic cytotoxicity against human MCF7/ADR cells assessed as combination index at 0.25 uM after 72 hrs in presence of 0.5 uM doxorubicin by MTT assay. The class given is functional.
Series [7] deals with MCF7. The series can be described thus: Induction of apoptosis in human MCF7 cells assessed as late apoptotic cells at 0.125 uM after 72 hrs by Annexin V-FITC/propidium iodide staining-based flow cytometric analysis (reference value: 2.8 %). In kind it is functional.
Series [8] deals with MCF7. The series can be described thus: Induction of apoptosis in human MCF7 cells assessed as viable cells at 0.125 uM after 72 hrs by Annexin V-FITC/propidium iodide staining-based flow cytometric analysis (reference value: 86.4 %). In kind it is functional. The conditions noted are these: read-out: Activity.
The subject of series [9] is NCI/ADR-RES. Nature of the series: Cytotoxicity against human MCF7/ADR cells assessed as reduction in cell viability incubated for 72 hrs in presence of doxorubicin by MTT assay. In kind it is functional, cell-based.
Series [10] deals with MCF7. The series can be described thus: Cell cycle arrest in human MCF7 cells assessed as accumulation at G2/M phase at 0.125 uM incubated for […] staining based flow cytometric analysis (reference value: 15 +/- 1.5 %). In kind it is functional.
Series [11] deals with MCF7. The series can be described thus: Induction of apoptosis in human MCF7 cells assessed as early apoptotic cells at 0.5 uM after 72 hrs by Annexin V-FITC/propidium iodide staining-based flow cytometric analysis (reference value: 4.6 %). In kind it is functional.
Series [12] relates to NCI/ADR-RES. Nature of the series: Synergistic cytotoxicity against human MCF7/ADR cells assessed as combination index at 1 uM after 72 hrs in presence of 0.5 uM doxorubicin by MTT assay. In kind it is functional.
The test system of series [13] is MCF7. Nature of the series: Induction of apoptosis in human MCF7 cells assessed as necrotic cells at 0.250 uM after 72 hrs by Annexin V-FITC/propidium iodide staining-based flow cytometric analysis (reference value: 6.2 %). The settings on record: dose 0.25 µM. The class given is functional.

For the compound `N#Cc1c2n(c3c(=O)n(-c4ccccc4)cnc13)CCCC2`, the IC50 with MCF7 [1] worked out at 300 nM; in the series with NCI/ADR-RES [9], 1170 nM. The viability at 0.5 µM with MCF7 [2] stood at 70.3%. The Activity with MCF7 [3] amounted to 4.1%; in the series on MCF7 [4] it was 13.4%; with MCF7 [7], 1.7%; in the series with MCF7 [10], 15.5%; in the series with MCF7 [11], 22.8%; with MCF7 [13], 10.7%. Moreover, the “inhibition (INH)” value in [5] is “Dose-Dependent Effect”. The CI with NCI/ADR-RES [6] stood at 0.631; with NCI/ADR-RES [12], 0.08. Moreover, the viability at 0.125 µM with MCF7 [8] stood at 86.3%.
